One block for each compound: values may come before it.
Key:
[1] = tested on: CCRF-CEM; assay: NCI cytotoxicity screen; assay type: cell-based, human; conditions: 10.0 μM one dose
[2] = tested on: MOLT-4; assay: NCI cytotoxicity screen; assay type: cell-based, human; conditions: 10.0 μM one dose
[3] = tested on: SR; assay: NCI cytotoxicity screen; assay type: cell-based, human; conditions: 10.0 μM one dose
[4] = tested on: A549/ATCC; assay: NCI cytotoxicity screen; assay type: cell-based, human; conditions: 10.0 μM one dose; A549/ATCC
[5] = tested on: EKVX; assay: NCI cytotoxicity screen; assay type: cell-based, human; conditions: 10.0 μM one dose
[6] = tested on: NCI-H226; assay: NCI cytotoxicity screen; assay type: cell-based, human; conditions: 10.0 μM one dose
[7] = tested on: NCI-H522; assay: NCI cytotoxicity screen; assay type: cell-based, human; conditions: 10.0 μM one dose
[8] = tested on: HCT-15; assay: NCI cytotoxicity screen; assay type: cell-based, human; conditions: 10.0 μM one dose
[9] = tested on: HT29; assay: NCI cytotoxicity screen; assay type: cell-based, human; conditions: 10.0 μM one dose; HT-29
[10] = tested on: KM12; assay: NCI cytotoxicity screen; assay type: cell-based, human; conditions: 10.0 μM one dose; KM-12
[11] = tested on: SF-268; assay: NCI cytotoxicity screen; assay type: cell-based, human; conditions: 10.0 μM one dose
[12] = tested on: SNB-19; assay: NCI cytotoxicity screen; assay type: cell-based, human; conditions: 10.0 μM one dose
[13] = tested on: SNB-75; assay: NCI cytotoxicity screen; assay type: cell-based, human; conditions: 10.0 μM one dose
[14] = tested on: LOX IMVI; assay: NCI cytotoxicity screen; assay type: cell-based, human; conditions: 10.0 μM one dose
[15] = tested on: MDA-MB-435; assay: NCI cytotoxicity screen; assay type: cell-based, human; conditions: 10.0 μM one dose
[16] = tested on: SK-MEL-5; assay: NCI cytotoxicity screen; assay type: cell-based, human; conditions: 10.0 μM one dose
[17] = tested on: UACC-62; assay: NCI cytotoxicity screen; assay type: cell-based, human; conditions: 10.0 μM one dose
[18] = tested on: OVCAR-3; assay: NCI cytotoxicity screen; assay type: cell-based, human; conditions: 10.0 μM one dose; OVCAR-3
[19] = tested on: CAKI-1; assay: NCI cytotoxicity screen; assay type: cell-based, human; conditions: 10.0 μM one dose
[20] = tested on: RXF 393; assay: NCI cytotoxicity screen; assay type: cell-based, human; conditions: 10.0 μM one dose
[21] = tested on: UO-31; assay: NCI cytotoxicity screen; assay type: cell-based, human; conditions: 10.0 μM one dose
[22] = tested on: PC-3; assay: NCI cytotoxicity screen; assay type: cell-based, human; conditions: 10.0 μM one dose
[23] = tested on: MCF7; assay: NCI cytotoxicity screen; assay type: cell-based, human; conditions: 10.0 μM one dose; MCF-7
[24] = tested on: MDA-MB-231/ATCC; assay: NCI cytotoxicity screen; assay type: cell-based, human; conditions: 10.0 μM one dose; MDA-MB-231/ATCC
[25] = tested on: HS 578T; assay: NCI cytotoxicity screen; assay type: cell-based, human; conditions: 10.0 μM one dose; HS-578T
[26] = tested on: T-47D; assay: NCI cytotoxicity screen; assay type: cell-based, human; conditions: 10.0 μM one dose; T-47D
[27] = tested on: MDA-MB-468; assay: NCI cytotoxicity screen; assay type: cell-based, human; conditions: 10.0 μM one dose
[28] = tested on: 59 cancer cell lines; assay: NCI cytotoxicity screen, full panel; assay type: cell-based, human; conditions: 10.0 μM one dose, 59 cell lines
[29] = biological target: T1, COX-2 (Ovis aries, UniProt P79208); assay: Colorimetric COX; assay type: biochemical, ovine
T1 sequence (P79208 17-603): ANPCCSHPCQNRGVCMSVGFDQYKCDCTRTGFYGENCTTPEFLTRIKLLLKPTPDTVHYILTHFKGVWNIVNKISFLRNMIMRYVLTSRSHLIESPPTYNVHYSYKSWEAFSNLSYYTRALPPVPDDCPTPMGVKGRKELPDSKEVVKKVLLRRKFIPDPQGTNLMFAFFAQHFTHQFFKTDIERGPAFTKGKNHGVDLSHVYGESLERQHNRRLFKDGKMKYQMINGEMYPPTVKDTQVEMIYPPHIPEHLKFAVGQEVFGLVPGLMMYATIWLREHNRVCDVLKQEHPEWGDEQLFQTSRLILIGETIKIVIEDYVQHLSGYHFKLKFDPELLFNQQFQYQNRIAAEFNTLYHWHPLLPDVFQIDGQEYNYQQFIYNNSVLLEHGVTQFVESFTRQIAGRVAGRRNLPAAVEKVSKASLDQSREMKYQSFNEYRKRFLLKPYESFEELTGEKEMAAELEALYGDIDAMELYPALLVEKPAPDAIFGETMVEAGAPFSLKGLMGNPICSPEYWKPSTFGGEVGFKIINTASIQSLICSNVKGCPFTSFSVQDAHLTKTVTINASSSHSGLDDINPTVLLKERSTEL

[30] = biological target: EGFR (Homo sapiens, UniProt P00533); assay: biochemical; conditions: IC50 EGFR inhibition
[31] = biological target: HER2 (Homo sapiens, UniProt P04626); assay: HER2 tyrosine kinase assay; assay type: biochemical; conditions: IC50 HER2 inhibition
[32] = biological target: CDK9 (Homo sapiens, UniProt P50750); assay: biochemical; conditions: IC50 CDK9 inhibition
[33] = tested on: K-562; conditions: 10.0 μM one dose
[34] = tested on: RPMI-8226; assay: NCI cytotoxicity screen; assay type: cell-based, human; conditions: 10.0 μM one dose
[35] = tested on: NCI-H23; assay: NCI cytotoxicity screen; assay type: cell-based, human; conditions: 10.0 μM one dose
[36] = tested on: HCT-116; assay: NCI cytotoxicity screen; assay type: cell-based, human; conditions: 10.0 μM one dose
[37] = tested on: SF-295; assay: NCI cytotoxicity screen; assay type: cell-based, human; conditions: 10.0 μM one dose
[38] = tested on: SF-539; assay: NCI cytotoxicity screen; assay type: cell-based, human; conditions: 10.0 μM one dose
[39] = tested on: U251; assay: NCI cytotoxicity screen; assay type: cell-based, human; conditions: 10.0 μM one dose; U-251
[40] = tested on: A498; assay: NCI cytotoxicity screen; assay type: cell-based, human; conditions: 10.0 μM one dose; A-498
[41] = tested on: DU-145; assay: NCI cytotoxicity screen; assay type: cell-based, human; conditions: 10.0 μM one dose
[42] = tested on: Ovarian cancer subpanel tumor cell lines; assay: NCI cytotoxicity screen, subpanel; assay type: cell-based, human; conditions: 10 μM; range over ovarian cancer cell lines

HER2, sequence (P04626 23-1255): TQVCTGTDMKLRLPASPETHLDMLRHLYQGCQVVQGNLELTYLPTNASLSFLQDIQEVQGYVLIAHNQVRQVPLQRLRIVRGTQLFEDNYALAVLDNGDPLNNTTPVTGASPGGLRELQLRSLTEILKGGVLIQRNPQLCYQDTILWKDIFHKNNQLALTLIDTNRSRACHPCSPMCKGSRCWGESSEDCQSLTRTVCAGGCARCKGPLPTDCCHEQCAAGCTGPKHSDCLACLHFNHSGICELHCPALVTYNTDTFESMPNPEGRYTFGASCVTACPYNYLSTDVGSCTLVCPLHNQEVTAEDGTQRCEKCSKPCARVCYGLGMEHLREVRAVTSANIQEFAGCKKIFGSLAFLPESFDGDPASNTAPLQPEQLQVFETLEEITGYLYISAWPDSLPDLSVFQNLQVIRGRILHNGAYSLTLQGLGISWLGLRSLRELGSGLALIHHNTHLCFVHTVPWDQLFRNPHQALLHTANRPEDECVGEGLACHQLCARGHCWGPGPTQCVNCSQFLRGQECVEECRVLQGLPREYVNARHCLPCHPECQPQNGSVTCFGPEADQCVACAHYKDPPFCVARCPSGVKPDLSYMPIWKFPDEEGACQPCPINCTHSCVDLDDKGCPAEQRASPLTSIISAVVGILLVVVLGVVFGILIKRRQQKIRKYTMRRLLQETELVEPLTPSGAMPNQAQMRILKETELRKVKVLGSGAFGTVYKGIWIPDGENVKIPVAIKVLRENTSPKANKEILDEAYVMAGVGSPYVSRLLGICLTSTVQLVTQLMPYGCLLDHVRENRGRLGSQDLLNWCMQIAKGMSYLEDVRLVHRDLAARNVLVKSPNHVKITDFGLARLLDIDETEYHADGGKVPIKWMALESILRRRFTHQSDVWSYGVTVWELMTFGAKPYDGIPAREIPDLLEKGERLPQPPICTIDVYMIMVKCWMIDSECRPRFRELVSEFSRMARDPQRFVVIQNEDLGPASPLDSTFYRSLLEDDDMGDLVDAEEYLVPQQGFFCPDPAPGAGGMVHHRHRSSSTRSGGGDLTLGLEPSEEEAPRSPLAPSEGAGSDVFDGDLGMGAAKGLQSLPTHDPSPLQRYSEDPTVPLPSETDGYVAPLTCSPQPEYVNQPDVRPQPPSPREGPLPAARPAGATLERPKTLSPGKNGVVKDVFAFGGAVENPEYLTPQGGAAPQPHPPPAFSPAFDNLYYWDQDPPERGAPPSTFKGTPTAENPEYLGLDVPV
EGFR, sequence (P00533 25-1210): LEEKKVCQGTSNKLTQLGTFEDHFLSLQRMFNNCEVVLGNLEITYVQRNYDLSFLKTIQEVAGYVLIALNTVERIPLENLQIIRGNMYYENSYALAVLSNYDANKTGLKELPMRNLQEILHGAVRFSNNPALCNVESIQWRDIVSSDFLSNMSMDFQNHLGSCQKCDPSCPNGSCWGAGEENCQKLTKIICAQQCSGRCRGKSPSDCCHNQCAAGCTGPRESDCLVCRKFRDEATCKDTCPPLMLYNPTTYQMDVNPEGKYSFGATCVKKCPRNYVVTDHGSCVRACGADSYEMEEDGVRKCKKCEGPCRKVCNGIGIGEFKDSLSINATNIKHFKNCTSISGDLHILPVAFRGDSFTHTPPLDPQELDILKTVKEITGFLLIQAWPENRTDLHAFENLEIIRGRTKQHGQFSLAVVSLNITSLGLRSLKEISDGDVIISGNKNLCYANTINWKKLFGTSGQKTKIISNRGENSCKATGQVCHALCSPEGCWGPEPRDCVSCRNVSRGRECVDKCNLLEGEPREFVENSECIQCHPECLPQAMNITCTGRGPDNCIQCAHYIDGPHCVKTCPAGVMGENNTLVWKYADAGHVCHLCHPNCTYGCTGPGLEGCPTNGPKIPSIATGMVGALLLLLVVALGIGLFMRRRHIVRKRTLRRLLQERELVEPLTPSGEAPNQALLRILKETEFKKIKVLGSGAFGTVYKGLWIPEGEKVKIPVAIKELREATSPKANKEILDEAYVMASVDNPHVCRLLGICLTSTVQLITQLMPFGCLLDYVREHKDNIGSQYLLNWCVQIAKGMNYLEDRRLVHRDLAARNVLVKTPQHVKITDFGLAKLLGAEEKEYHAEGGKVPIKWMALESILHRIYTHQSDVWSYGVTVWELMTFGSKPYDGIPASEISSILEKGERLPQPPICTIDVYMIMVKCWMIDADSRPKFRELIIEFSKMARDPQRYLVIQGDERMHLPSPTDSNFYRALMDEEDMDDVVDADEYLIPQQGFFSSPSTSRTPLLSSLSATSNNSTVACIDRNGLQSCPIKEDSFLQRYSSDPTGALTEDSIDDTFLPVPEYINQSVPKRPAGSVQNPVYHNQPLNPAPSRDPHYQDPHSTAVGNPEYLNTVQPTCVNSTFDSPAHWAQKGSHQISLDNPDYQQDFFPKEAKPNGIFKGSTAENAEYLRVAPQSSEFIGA
CDK9, sequence (P50750 whole entry): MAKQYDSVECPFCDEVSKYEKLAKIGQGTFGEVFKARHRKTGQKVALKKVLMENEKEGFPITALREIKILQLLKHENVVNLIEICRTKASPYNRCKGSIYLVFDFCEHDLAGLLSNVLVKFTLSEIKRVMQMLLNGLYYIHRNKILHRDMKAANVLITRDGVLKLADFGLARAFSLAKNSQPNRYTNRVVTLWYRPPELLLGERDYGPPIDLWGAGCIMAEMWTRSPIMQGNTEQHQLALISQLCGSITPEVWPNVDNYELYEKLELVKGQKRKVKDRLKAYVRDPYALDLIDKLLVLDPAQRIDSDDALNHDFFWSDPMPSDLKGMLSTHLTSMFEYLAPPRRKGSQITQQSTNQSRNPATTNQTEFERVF
CDK9, sequence (O60563 whole entry partner): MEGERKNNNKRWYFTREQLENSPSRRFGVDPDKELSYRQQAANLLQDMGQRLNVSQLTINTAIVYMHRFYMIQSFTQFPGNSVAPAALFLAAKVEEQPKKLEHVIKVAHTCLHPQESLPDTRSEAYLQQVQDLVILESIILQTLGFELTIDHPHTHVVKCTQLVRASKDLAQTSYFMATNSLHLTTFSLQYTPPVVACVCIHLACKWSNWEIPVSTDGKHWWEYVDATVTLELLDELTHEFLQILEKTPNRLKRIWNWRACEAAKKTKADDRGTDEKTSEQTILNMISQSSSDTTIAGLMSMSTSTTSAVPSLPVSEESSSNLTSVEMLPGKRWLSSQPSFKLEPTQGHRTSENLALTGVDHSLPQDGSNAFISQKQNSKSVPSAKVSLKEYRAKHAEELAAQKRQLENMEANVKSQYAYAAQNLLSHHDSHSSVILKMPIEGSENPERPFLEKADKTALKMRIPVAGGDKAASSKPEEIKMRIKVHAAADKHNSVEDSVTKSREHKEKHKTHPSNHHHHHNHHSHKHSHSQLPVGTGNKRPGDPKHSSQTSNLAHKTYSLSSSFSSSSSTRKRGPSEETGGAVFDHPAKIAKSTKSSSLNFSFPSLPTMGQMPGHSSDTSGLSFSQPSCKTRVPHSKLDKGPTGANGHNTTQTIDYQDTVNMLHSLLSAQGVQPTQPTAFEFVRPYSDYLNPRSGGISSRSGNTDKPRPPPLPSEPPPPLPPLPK

IC50 [29]: 15400 ± 320 nM
IC50 [30]: 378 ± 9.26 nM
IC50 [31]: 229 nM
IC50 [32]: 316 ± 7.76 nM
SMILES: Cc1ccc(C=NNC(=O)CSc2nc3ccccc3c(=O)n2Cc2ccc(S(N)(=O)=O)cc2)cc1 [Compound 9, 4-((2-((2-(2-(4-Methylbenzylidene)hydrazineyl)-2-oxoethyl)thio)-4-oxoquinazolin-3(4H)-yl)methyl)benzenesulfonamide]
GI % [1]: 13%
GI % [2]: 14%
GI % [3]: 51%
GI % [4]: 15%
GI % [5]: 10%
GI % [6]: 16%
GI % [7]: 58%
GI % [8]: 11%
GI % [9]: 14%
GI % [10]: 14%
GI % [11]: 22%
GI % [12]: 11%
GI % [13]: 29%
GI % [14]: 18%
GI % [15]: 54%
GI % [16]: 26%
GI % [17]: 22%
GI % [18]: 21%
GI % [19]: 36%
GI % [20]: 14%
GI % [21]: 20%
GI % [22]: 11%
GI % [23]: 41%
GI % [24]: 11%
GI % [25]: 12%
GI % [26]: 19%
GI % [27]: 19%
MG% (mean growth percent) [28]: 88.5%
GI % [33]: 37%

SMILES: Cc1ccc(NC(=O)c2ccc(CN3CCN(C)CC3)cc2)cc1Nc1nccc(-c2cccnc2)n1 [Imatinib, reference compound]
GI % [2]: 18%
GI % [34]: 12.6%
GI % [3]: 14.6%
GI % [5]: 15.7%
GI % [6]: 10.6%
GI % [35]: 17.1%
GI % [36]: 18.6%
GI % [8]: 11.5%
GI % [9]: 47.1%
GI % [37]: 15.1%
GI % [38]: 24.5%
GI % [39]: 10.6%
GI % [14]: 11.6%
GI % [40]: 13.7%
GI % [22]: 10.6%
GI % [41]: 14.4%
GI % [24]: 11.2%
GI % [26]: 18.6%
GI % [27]: 29.1%
GI % [42]: < 10%
MG% (mean growth percent) [28]: 92.62%
MG% (mean growth percent) ([28]; listed as imatinib): 92.6%
